This passage reports relative viability results from the supplement of paper PMC10307832.

Assay in all cases: relative viability (nuclei count vs DMSO), 5 days (fraction); higher = more cells survive
Compound in the experiment “4EGI-1 + Vorinostat”: O=C(O)C(Cc1ccccc1[N+](=O)[O-])=NNc1nc(-c2ccc(Cl)c(Cl)c2)cs1 (mixture of isomers) [4EGI-1] + O=C(CCCCCCC(=O)Nc1ccccc1)NO [Vorinostat] (partner 1 µM)
In short, it runs like this:
(§1)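 Lung cancer cell lines in 1536-well plates were dosed by pin tool the day after seeding, either with one drug alone or with a fixed anchor-drug dose plus five library-drug doses (not always all listed) in √10 steps. After 5 days, cells were fixed and their nuclei stained in one step (final 0.05% Triton X-100, 1% formaldehyde, 1 ug/ml Hoechst), then counted on 4× images. Relative viability is the nuclei count in treated wells divided by that in vehicle wells. Values are medians of duplicate plates.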

Compound in the experiment “4EGI-1 + Decitabine”: O=C(O)C(Cc1ccccc1[N+](=O)[O-])=NNc1nc(-c2ccc(Cl)c(Cl)c2)cs1 (mixture of isomers) [4EGI-1] + Nc1ncn([C@H]2C[C@H](O)[C@@H](CO)O2)c(=O)n1 [Decitabine] (partner 2 µM)
In short, it runs like this:
as §1

Compound in the experiment “4EGI-1 + Dasatinib”: O=C(O)C(Cc1ccccc1[N+](=O)[O-])=NNc1nc(-c2ccc(Cl)c(Cl)c2)cs1 (mixture of isomers) [4EGI-1] + Cc1nc(Nc2ncc(C(=O)Nc3c(C)cccc3Cl)s2)cc(N2CCN(CCO)CC2)n1 [Dasatinib] (partner 0.075 µM)
In short, it runs like this:
as §1

Compound in the experiment “XMD8-85 + Vorinostat”: CN1CCN(CC1)C2=CC(=C(C=C2)NC3=NC=C4C(=N3)N(C5=CC=CC=C5C(=O)N4C)C)OC [XMD8-85] + O=C(CCCCCCC(=O)Nc1ccccc1)NO [Vorinostat] (partner 1 µM)
In short, it runs like this:
as §1

In the case of LU99A, the relative viability with 4EGI-1 + Vorinostat (first compound 0.5 µM) is 0.514; with 4EGI-1 + Vorinostat (first compound 1.581 µM), 0.421; with 4EGI-1 + Vorinostat (first compound 5 µM) it was 0.44; in the experiment with 4EGI-1 + Vorinostat (first compound 15.81 µM), 0.528; in the experiment with 4EGI-1 + Vorinostat (first compound 50 µM), 0.261; with 4EGI-1 + Decitabine (first compound 0.5 µM) it was 0.879. Also, the relative viability came to 0.699 with 4EGI-1 + Decitabine (first compound 1.581 µM); 0.83 with 4EGI-1 + Decitabine (first compound 5 µM); 0.851 with 4EGI-1 + Decitabine (first compound 15.81 µM); 0.508 with 4EGI-1 + Decitabine (first compound 50 µM); 0.615 in the experiment with 4EGI-1 + Dasatinib (first compound 0.5 µM); 0.405 with 4EGI-1 + Dasatinib (first compound 1.581 µM). The relative viability came to 0.54 with 4EGI-1 + Dasatinib (first compound 5 µM); 0.449 with 4EGI-1 + Dasatinib (first compound 15.81 µM); 0.235 with 4EGI-1 + Dasatinib (first compound 50 µM); 0.363 with XMD8-85 + Vorinostat (first compound 0.08 µM); 0.518 in the experiment with XMD8-85 + Vorinostat (first compound 0.253 µM); 0.506 in the experiment with XMD8-85 + Vorinostat (first compound 0.8 µM). The relative viability with XMD8-85 + Vorinostat (first compound 8 µM) is 0.428.
Take NCI-H522: the relative viability with 4EGI-1 + Vorinostat (first compound 0.5 µM) worked out at 0.812; with 4EGI-1 + Vorinostat (first compound 1.581 µM), 0.903; with 4EGI-1 + Vorinostat (first compound 5 µM), 0.954; with 4EGI-1 + Vorinostat (first compound 15.81 µM), 1.03; with 4EGI-1 + Vorinostat (first compound 50 µM), 0.634; with 4EGI-1 + Decitabine (first compound 0.5 µM), 0.666. The relative viability in the experiment with 4EGI-1 + Decitabine (first compound 1.581 µM) turned out to be 0.63; in the experiment with 4EGI-1 + Decitabine (first compound 5 µM), 0.693; in the experiment with 4EGI-1 + Decitabine (first compound 15.81 µM), 0.679; with 4EGI-1 + Decitabine (first compound 50 µM), 0.63; in the experiment with 4EGI-1 + Dasatinib (first compound 0.5 µM), 1.02; with 4EGI-1 + Dasatinib (first compound 1.581 µM), 0.735. Moreover, the relative viability with 4EGI-1 + Dasatinib (first compound 5 µM) is 0.858; with 4EGI-1 + Dasatinib (first compound 15.81 µM) it was 0.893; in the experiment with 4EGI-1 + Dasatinib (first compound 50 µM), 0.556; with XMD8-85 + Vorinostat (first compound 0.08 µM), 0.936; with XMD8-85 + Vorinostat (first compound 0.253 µM) it was 0.877; with XMD8-85 + Vorinostat (first compound 0.8 µM), 0.918. Also, the relative viability with XMD8-85 + Vorinostat (first compound 2.53 µM) was 0.884; with XMD8-85 + Vorinostat (first compound 8 µM) it was 0.654.
Regarding SW 1573, the relative viability turned out to be 1.09 with 4EGI-1 + Vorinostat (first compound 0.5 µM); 0.787 with 4EGI-1 + Vorinostat (first compound 1.581 µM); 0.48 with 4EGI-1 + Vorinostat (first compound 5 µM); 0.455 with 4EGI-1 + Vorinostat (first compound 15.81 µM); 0.164 in the experiment with 4EGI-1 + Vorinostat (first compound 50 µM); 0.623 with 4EGI-1 + Decitabine (first compound 0.5 µM). The relative viability with 4EGI-1 + Decitabine (first compound 1.581 µM) came out at 0.427; with 4EGI-1 + Decitabine (first compound 5 µM), 0.495; in the experiment with 4EGI-1 + Decitabine (first compound 15.81 µM), 0.254; with 4EGI-1 + Decitabine (first compound 50 µM) it was 0.112; with 4EGI-1 + Dasatinib (first compound 0.5 µM), 0.7; in the experiment with 4EGI-1 + Dasatinib (first compound 1.581 µM), 0.254. Also, the relative viability in the experiment with 4EGI-1 + Dasatinib (first compound 5 µM) was 0.593; in the experiment with 4EGI-1 + Dasatinib (first compound 15.81 µM) it was 0.234; with 4EGI-1 + Dasatinib (first compound 50 µM) it was 0.0967; with XMD8-85 + Vorinostat (first compound 0.08 µM), 0.643; with XMD8-85 + Vorinostat (first compound 0.253 µM), 0.739; with XMD8-85 + Vorinostat (first compound 0.8 µM) it was 1.11. For the same cell line, the relative viability in the experiment with XMD8-85 + Vorinostat (first compound 2.53 µM) came out at 0.596; with XMD8-85 + Vorinostat (first compound 8 µM) it was 0.46.
For ChaGo-K-1, the relative viability in the experiment with 4EGI-1 + Vorinostat (first compound 0.5 µM) was found to be 0.779; with 4EGI-1 + Vorinostat (first compound 1.581 µM), 0.61; in the experiment with 4EGI-1 + Vorinostat (first compound 5 µM), 0.796; with 4EGI-1 + Vorinostat (first compound 15.81 µM), 0.781; in the experiment with 4EGI-1 + Vorinostat (first compound 50 µM), 0.347; with 4EGI-1 + Decitabine (first compound 0.5 µM) it was 0.538. The relative viability in the experiment with 4EGI-1 + Decitabine (first compound 1.581 µM) is 0.511; in the experiment with 4EGI-1 + Decitabine (first compound 5 µM), 0.523; with 4EGI-1 + Decitabine (first compound 15.81 µM), 0.479; with 4EGI-1 + Decitabine (first compound 50 µM), 0.352; with 4EGI-1 + Dasatinib (first compound 0.5 µM), 0.661; with 4EGI-1 + Dasatinib (first compound 1.581 µM), 0.629. Further, the relative viability turned out to be 0.639 with 4EGI-1 + Dasatinib (first compound 5 µM); 0.48 with 4EGI-1 + Dasatinib (first compound 15.81 µM); 0.25 with 4EGI-1 + Dasatinib (first compound 50 µM); 0.751 with XMD8-85 + Vorinostat (first compound 0.08 µM); 0.782 with XMD8-85 + Vorinostat (first compound 0.253 µM); 0.76 with XMD8-85 + Vorinostat (first compound 0.8 µM). In addition, the results for the relative viability with XMD8-85 + Vorinostat (first compound 2.53 µM) and in the experiment with XMD8-85 + Vorinostat (first compound 8 µM) were 0.81 and 0.619, respectively.
For HARA, the relative viability with 4EGI-1 + Vorinostat (first compound 0.5 µM) turned out to be 0.545; in the experiment with 4EGI-1 + Vorinostat (first compound 1.581 µM) it was 0.429; with 4EGI-1 + Vorinostat (first compound 5 µM), 0.525; with 4EGI-1 + Vorinostat (first compound 15.81 µM) it was 0.47; with 4EGI-1 + Vorinostat (first compound 50 µM) it was 0.127; with 4EGI-1 + Decitabine (first compound 0.5 µM), 0.446. Also, the relative viability with 4EGI-1 + Decitabine (first compound 1.581 µM) was 0.511; in the experiment with 4EGI-1 + Decitabine (first compound 5 µM), 0.692; with 4EGI-1 + Decitabine (first compound 15.81 µM), 0.366; with 4EGI-1 + Decitabine (first compound 50 µM), 0.167; with 4EGI-1 + Dasatinib (first compound 0.5 µM), 0.273; in the experiment with 4EGI-1 + Dasatinib (first compound 1.581 µM), 0.319. Moreover, the relative viability in the experiment with 4EGI-1 + Dasatinib (first compound 5 µM) amounted to 0.283; with 4EGI-1 + Dasatinib (first compound 15.81 µM), 0.206; with 4EGI-1 + Dasatinib (first compound 50 µM), 0.218; in the experiment with XMD8-85 + Vorinostat (first compound 0.08 µM), 0.549; with XMD8-85 + Vorinostat (first compound 0.253 µM), 0.592; in the experiment with XMD8-85 + Vorinostat (first compound 0.8 µM) it was 0.565. The relative viability was found to be 0.427 with XMD8-85 + Vorinostat (first compound 2.53 µM) and 0.47 with XMD8-85 + Vorinostat (first compound 8 µM).
